Results reported in US6706663B2, “Herbicidal 3-heterocyclic substituted benzisothiazole and benzisoxazole compounds” (Wyeth, priority 2000, dated 2004).

Experiments:
[1] = test system: ECHCG (Echinochloa crus-galli); experiment: Postemergence herbicidal evaluation; type: in vivo, (L.) Beau; settings: postemergence
Summary of the method: (§1)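 Visual 0–9 injury scores versus control plants, covering stand, vigour, malformation, size, chlorosis and general appearance, taken four to five weeks post-spray and averaged over replicate tests. Plants were sprayed at roughly two weeks old and held on greenhouse benches.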

[2] = test system: CASOB (Cassia obtusifolia); experiment: Preemergence herbicidal evaluation; type: in vivo, L.; settings: rated 4-5 weeks after treatment
Summary of the method: (§2)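 Rating 0–9, visual, vs control; 4–5 wk after spraying seeded cups with compound in aq. acetone; conventional greenhouse care.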

[3] = test system: AMBEL (Ambrosia artemisifolia); experiment: Preemergence herbicidal evaluation; type: in vivo, L.; settings: rated 4-5 weeks after treatment
Summary of the method: as §2

[4] = test system: CHEAL (Chenopodium album); experiment: Preemergence herbicidal evaluation; type: in vivo, L.; settings: rated 4-5 weeks after treatment
Summary of the method: as §2

[5] = test system: TRZAWR (Wheat, Winter, cv Riband); experiment: Preemergence herbicidal evaluation; type: in vivo, Triticum aestivum; settings: rated 4-5 weeks after treatment
Summary of the method: as §2

[6] = test system: TRZAWR (Wheat, Winter, cv Riband); experiment: Postemergence herbicidal evaluation; type: in vivo, Triticum aestivum; settings: postemergence
Summary of the method: as §1

[7] = test system: IPOHE (Ipomoea hederacea); experiment: Postemergence herbicidal evaluation; type: in vivo, (L.) Jacq.; settings: postemergence
Summary of the method: as §1

[8] = test system: ORYSAT (Rice, Tebonnet); experiment: Preemergence herbicidal evaluation; type: in vivo, Oryza sativa, (L.) Tebonnet; settings: rated 4-5 weeks after treatment
[9] = test system: CASOB (Cassia obtusifolia); experiment: Postemergence herbicidal evaluation; type: in vivo, L.; settings: postemergence
Summary of the method: as §1

[10] = test system: AMBEL (Ambrosia artemisifolia); experiment: Postemergence herbicidal evaluation; type: in vivo, L.; settings: postemergence
Summary of the method: as §1

[11] = test system: CHEAL (Chenopodium album); experiment: Postemergence herbicidal evaluation; type: in vivo, L.; settings: postemergence
Summary of the method: as §1

[12] = test system: ECHORC (Echinochloa oryzoides); experiment: Flooded paddy, preemergence weed control; type: in vivo, Echinochloa oryzoides (Ard.) Fritsch.; settings: rated 3-4 weeks after treatment, 0-9 rating scale
Summary of the method: (§3)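 Greenhouse paddy test, preemergence. Seeds planted in the top 0.5 cm of silt loam soil, which remained flooded at 1.5–3 cm depth. Scored 0-9 by visual comparison with control.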

[13] = test system: ABUTH (Abutilon theophrasti); experiment: Preemergence herbicidal evaluation; type: in vivo, Medic.; settings: rated 4-5 weeks after treatment
[14] = test system: ORYSAT (Rice, Tebonnet); experiment: Postemergence herbicidal evaluation; type: in vivo, Oryza sativa, (L.) Tebonnet; settings: postemergence
Summary of the method: as §1

[15] = test system: ORYSAT (Rice, Tebonnet); experiment: Flooded paddy, post-transplant rice tolerance; type: in vivo, Oryza sativa, (L.) Tebonnet; settings: flooded paddy, post-transplant rice, rated 3-4 weeks after treatment, 0-9 rating scale
Summary of the method: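 Two ten-day-old seedlings were transplanted into silt loam, flooded and held at 1.5 to 3 cm water above the soil before herbicide treatment. Pots stayed in the greenhouse at that water level. Injury was scored visually on a 0-9 scale versus untreated control.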

[16] = test system: ZEAMX (Corn, Field); experiment: Postemergence herbicidal evaluation; type: in vivo, Zea mays, L.; settings: postemergence
Summary of the method: as §1

[17] = test system: ABUTH (Abutilon theophrasti); experiment: Postemergence herbicidal evaluation; type: in vivo, Medic.; settings: postemergence
Summary of the method: as §1

[18] = test system: SAGPY (Sagittaria pygmaea); experiment: Flooded paddy, preemergence weed control; type: in vivo, L.; settings: rated 3-4 weeks after treatment, 0-9 rating scale
Summary of the method: as §3

For `CC1=CC(C)(C)OC(c2nsc3ccc(-n4c(=O)cc(C(F)(F)F)n(C)c4=O)cc23)C1` (stereo not drawn) [Compound 65, 3-[3-(3,6-dihydro-4,6,6-trimethyl-2H-pyran-2-yl)-1,2-benzisothiazol-5-yl]-1-methyl-6-(trifluoromethyl)uracil], the ECHCG herbicidal rating ([1]; rate 0.0320 kg/ha) was 4.0, the ECHCG herbicidal rating ([1]; rate 0.0620 kg/ha) was 5.0 and the “Preemergence herbicidal rating CASOB” value ([2]; Rate 0.0620 kg/ha) was 0.0. The “Preemergence herbicidal rating CASOB” value ([2]; Rate 0.1250 kg/ha) was 0.0, the “Preemergence herbicidal rating CASOB” value ([2]; Rate 0.2500 kg/ha) was 0.0 and the “Preemergence herbicidal rating AMBEL” value ([3]; Rate 0.0620 kg/ha) was 8.0. The “Preemergence herbicidal rating AMBEL” value ([3]; Rate 0.1250 kg/ha) was 9.0, the “Preemergence herbicidal rating AMBEL” value ([3]; Rate 0.2500 kg/ha) was 9.0 and the “Preemergence herbicidal rating CHEAL” value ([4]; Rate 0.0620 kg/ha) was 9.0. For the same compound, the “Preemergence herbicidal rating CHEAL” value ([4]; Rate 0.1250 kg/ha) was 9.0, the “Preemergence herbicidal rating CHEAL” value ([4]; Rate 0.2500 kg/ha) was 9.0 and the “Preemergence herbicidal rating TRZAWR” value ([5]; Rate 0.0620 kg/ha) was 5.0. For the same compound, the “Preemergence herbicidal rating TRZAWR” value ([5]; Rate 0.1250 kg/ha) was 7.0, the “Preemergence herbicidal rating TRZAWR” value ([5]; Rate 0.2500 kg/ha) was 9.0 and the TRZAWR herbicidal rating ([6]; rate 0.0320 kg/ha) was 4.0. The TRZAWR herbicidal rating ([6]; rate 0.0620 kg/ha) was 5.0, the IPOHE herbicidal rating ([7]; rate 0.0320 kg/ha) was 9.0 and the IPOHE herbicidal rating ([7]; rate 0.0620 kg/ha) was 9.0. The “Preemergence herbicidal rating ORYSAT” value ([8]; Rate 0.0620 kg/ha) was 7.0, the “Preemergence herbicidal rating ORYSAT” value ([8]; Rate 0.1250 kg/ha) was 7.0 and the “Preemergence herbicidal rating ORYSAT” value ([8]; Rate 0.2500 kg/ha) was 9.0. It also gave a CASOB herbicidal rating ([9]; rate 0.0320 kg/ha) of 4.0, a CASOB herbicidal rating ([9]; rate 0.0620 kg/ha) of 5.0 and an AMBEL herbicidal rating ([10]; rate 0.0320 kg/ha) of 9.0. For the same compound, the AMBEL herbicidal rating ([10]; rate 0.0620 kg/ha) was 9.0, the CHEAL herbicidal rating ([11]; rate 0.0320 kg/ha) was 7.0 and the CHEAL herbicidal rating ([11]; rate 0.0620 kg/ha) was 9.0. For the same compound, the “herbicidal rating, ECHORC” value ([12]; rate 0.0080 kg/ha) was 0.0, the “herbicidal rating, ECHORC” value ([12]; rate 0.0320 kg/ha) was 0.0 and the “herbicidal rating, ECHORC” value ([12]; rate 0.1250 kg/ha) was 7.0. For the same compound, the “Preemergence herbicidal rating ABUTH” value ([13]; Rate 0.0620 kg/ha) was 9.0, the “Preemergence herbicidal rating ABUTH” value ([13]; Rate 0.1250 kg/ha) was 9.0 and the “Preemergence herbicidal rating ABUTH” value ([13]; Rate 0.2500 kg/ha) was 9.0. For the same compound, the ORYSAT herbicidal rating ([14]; rate 0.0320 kg/ha) was 4.0, the ORYSAT herbicidal rating ([14]; rate 0.0620 kg/ha) was 4.5 and the “herbicidal rating, ORYSAT (rice tolerance)” value (shortened to “herbicidal rating, ORYSAT”) ([15]; rate 0.0080 kg/ha) was 0.0. The “herbicidal rating, ORYSAT” value ([15]; rate 0.0320 kg/ha) was 0.0, the “herbicidal rating, ORYSAT” value ([15]; rate 0.1250 kg/ha) was 0.0 and the ZEAMX herbicidal rating ([16]; rate 0.0320 kg/ha) was 5.0. It also gave a ZEAMX herbicidal rating ([16]; rate 0.0620 kg/ha) of 5.5, an ABUTH herbicidal rating ([17]; rate 0.0320 kg/ha) of 9.0 and an ABUTH herbicidal rating ([17]; rate 0.0620 kg/ha) of 9.0. The “herbicidal rating, SAGPY” value ([18]; rate 0.0080 kg/ha) was 0.0, the “herbicidal rating, SAGPY” value ([18]; rate 0.0320 kg/ha) was 0.0 and the “herbicidal rating, SAGPY” value ([18]; rate 0.1250 kg/ha) was 0.0.

`C[C@@H]1C[C@H](C)OC(c2nsc3cc(F)c(-n4c(=O)cc(C(F)(F)F)n(C)c4=O)cc23)O1` (stereo partly drawn) [Compound 67, 3-[3-[(4R,6S)-4,6-dimethyl-m-dioxan-2-yl]-6-fluoro-1,2-benzisothiazol-5-yl]-1-methyl-6-(trifluoromethyl)uracil] was tested, and the ECHCG herbicidal rating ([1]; rate 0.0320 kg/ha) was 3.0, the ECHCG herbicidal rating ([1]; rate 0.0620 kg/ha) was 4.0 and the “Preemergence herbicidal rating CASOB” value ([2]; Rate 0.0620 kg/ha) was 5.5. For the same compound, the “Preemergence herbicidal rating CASOB” value ([2]; Rate 0.1250 kg/ha) was 5.0, the “Preemergence herbicidal rating AMBEL” value ([3]; Rate 0.0620 kg/ha) was 9.0 and the “Preemergence herbicidal rating AMBEL” value ([3]; Rate 0.1250 kg/ha) was 9.0. The “Preemergence herbicidal rating CHEAL” value ([4]; Rate 0.0620 kg/ha) was 9.0, the “Preemergence herbicidal rating CHEAL” value ([4]; Rate 0.1250 kg/ha) was 9.0 and the “Preemergence herbicidal rating TRZAWR” value ([5]; Rate 0.0620 kg/ha) was 9.0. For the same compound, the “Preemergence herbicidal rating TRZAWR” value ([5]; Rate 0.1250 kg/ha) was 9.0, the TRZAWR herbicidal rating ([6]; rate 0.0320 kg/ha) was 4.0 and the TRZAWR herbicidal rating ([6]; rate 0.0620 kg/ha) was 4.0. The IPOHE herbicidal rating ([7]; rate 0.0320 kg/ha) was 9.0, the IPOHE herbicidal rating ([7]; rate 0.0620 kg/ha) was 9.0 and the “Preemergence herbicidal rating ORYSAT” value ([8]; Rate 0.0620 kg/ha) was 9.0. For the same compound, the “Preemergence herbicidal rating ORYSAT” value ([8]; Rate 0.1250 kg/ha) was 9.0, the CASOB herbicidal rating ([9]; rate 0.0320 kg/ha) was 9.0 and the CASOB herbicidal rating ([9]; rate 0.0620 kg/ha) was 9.0. For the same compound, the AMBEL herbicidal rating ([10]; rate 0.0320 kg/ha) was 9.0, the AMBEL herbicidal rating ([10]; rate 0.0620 kg/ha) was 9.0 and the CHEAL herbicidal rating ([11]; rate 0.0320 kg/ha) was 9.0. For the same compound, the CHEAL herbicidal rating ([11]; rate 0.0620 kg/ha) was 9.0, the “herbicidal rating, ECHORC” value ([12]; rate 0.0080 kg/ha) was 4.5 and the “herbicidal rating, ECHORC” value ([12]; rate 0.0320 kg/ha) was 9.0. The “herbicidal rating, ECHORC” value ([12]; rate 0.1250 kg/ha) was 9.0, the “Preemergence herbicidal rating ABUTH” value ([13]; Rate 0.0620 kg/ha) was 9.0 and the “Preemergence herbicidal rating ABUTH” value ([13]; Rate 0.1250 kg/ha) was 9.0. For the same compound, the ORYSAT herbicidal rating ([14]; rate 0.0320 kg/ha) was 4.5, the ORYSAT herbicidal rating ([14]; rate 0.0620 kg/ha) was 5.5 and the “herbicidal rating, ORYSAT” value ([15]; rate 0.0080 kg/ha) was 5.5. For the same compound, the “herbicidal rating, ORYSAT” value ([15]; rate 0.0320 kg/ha) was 9.0, the “herbicidal rating, ORYSAT” value ([15]; rate 0.1250 kg/ha) was 9.0 and the ZEAMX herbicidal rating ([16]; rate 0.0320 kg/ha) was 5.5. It also gave a ZEAMX herbicidal rating ([16]; rate 0.0620 kg/ha) of 6.0, an ABUTH herbicidal rating ([17]; rate 0.0320 kg/ha) of 9.0 and an ABUTH herbicidal rating ([17]; rate 0.0620 kg/ha) of 9.0. The “herbicidal rating, SAGPY” value ([18]; rate 0.0080 kg/ha) was 1.5, the “herbicidal rating, SAGPY” value ([18]; rate 0.0320 kg/ha) was 7.0 and the “herbicidal rating, SAGPY” value ([18]; rate 0.1250 kg/ha) was 7.0.
